According to patent US20140323521A1, “PHARMACEUTICAL COMPOSITIONS AND ADMINISTRATIONS THEREOF” (Vertex Pharmaceuticals Incorporated, priority 2011, published 2014):

Assays:
Assay in all cases: FRT cell Ussing chamber chloride transport assay
Assay type in all cases: cell-based
[1] = target: T1, human CFTR mutant G551S (Homo sapiens, UniProt P13569, G551S); details: FRT cells expressing G551S CFTR
T1 construct: expressed in transfected cells; host or cells: Fisher rat thyroid (FRT) FlpIn cells, pcDNA5/FRT
Text: (§1) DNA cloning: Wild-type CFTR coding region was inserted into pcDNA5/FRT (Invitrogen, San Diego, Calif.) between EcoRV and ApaI.
(§2) Single CFTR gene mutations were introduced into the wild-type CFTR coding sequence by using QuickChange XL site-directed mutagenesis kit (Stratagene, Cambridge, UK). The CFTR coding region as well as its promoter sequence and 3′ untranslated sequence was fully sequenced to confirm the mutagenesis reaction.
(§3) The CFTR gene was stably expressed in Fisher rat thyroid (FRT) cells through FlpIn system. The FRT-FlpIn host cell line was generated by stably transfecting FRT cells with pFRT/lacZeo. The single integration of a FRT site was confirmed by Southern blot. After the mutant CFTR DNA was transfected into the FRT-FlpIn host cell line, the cells were incubate at 37° C. in Coon's modified Ham's F12 containing 10% FBS, 1% Pen/Strep, and 36 ml of Na-Bicarbonate for up to 8 passages under hygromycin selection (200 ug/ml).
(§4) All cells were grown on Costar® Snapwell™ cell culture inserts at maintained at 37° C. prior to recording. The cell culture inserts were mounted into an Ussing chamber (VCC MC8; Physiologic Instruments, Inc., San Diego, Calif.) to record ISC in the voltage-clamp mode (Vhold=0 mV). For FRT cells, the basolateral membrane was permeabilized with 360 μg/ml Nystatin and a basolateral to apical Cl− gradient was established. The basolateral bath solution contained (in mM); 135 NaCl, 1.2 CaCl2, 1.2 MgCl2, 2.4 K2HPO4, 0.6 KHPO4, 10 N-2-hydroxyethylpiperazine-N′-2-ethanesulfonic acid (HEPES), and 10 dextrose (titrated to pH 7.4 with NaOH). The apical NaCl was replaced by equimolar Na+ gluconate (titrated to pH 7.4 with NaOH). For HBE cells, the ISC was measured in the presence of a basolateral to apical Cl− gradient. The normal Cl− solution contained (in mM) 145 NaCl, 3.3 K2HPO4, 1.2 MgCl2, 1.2 CaCl2, 10 Glucose, 10 HEPES (pH adjusted to 7.35 with NaOH) and the low Cl− solution contained (in mM) 145 NaGluconate, 1.2 MgCl2, 1.2 CaCl2, 10 glucose, 10 HEPES (pH adjusted to 7.35 with NaOH). All recordings were digitally acquired using a Acquire and Analyze software (version 2; Physiologic Instruments, Inc. San Diego, Calif.).
(§5) The 10 μM forskolin stimulated response in FRT cell expressing different mutant CFTR forms or in HBE cells isolated from CF patients was normalized to the 10 μM forskolin-stimulated response in FRT cells expressing wild-type CFTR or in HBE isolated from non-CF individuals and expressed as % wild-type CFTR. In HBE, amiloride was added prior to forskolin application to block the epithelial Na+ channel.

[2] = target: T2, human CFTR mutant S549N (Homo sapiens, UniProt P13569, S549N); details: FRT cells expressing S549N CFTR
T2 construct: expressed in transfected cells; host or cells: Fisher rat thyroid (FRT) FlpIn cells, pcDNA5/FRT
Text: as §1, §2, §3, §4, §5

[3] = target: T3, human CFTR mutant G1349D (Homo sapiens, UniProt P13569, G1349D); details: FRT cells expressing G1349D CFTR
T3 construct: expressed in transfected cells; host or cells: Fisher rat thyroid (FRT) FlpIn cells, pcDNA5/FRT
Text: as §1, §2, §3, §4, §5

[4] = target: T4, human CFTR mutant G1244E (Homo sapiens, UniProt P13569, G1244E); details: FRT cells expressing G1244E CFTR
T4 construct: expressed in transfected cells; host or cells: Fisher rat thyroid (FRT) FlpIn cells, pcDNA5/FRT
Text: as §1, §2, §3, §4, §5

[5] = target: T5, human CFTR mutant G970R (Homo sapiens, UniProt P13569, G970R); details: FRT cells expressing G970R CFTR
T5 construct: expressed in transfected cells; host or cells: Fisher rat thyroid (FRT) FlpIn cells, pcDNA5/FRT
Text: as §1, §2, §3, §4, §5

[6] = target: T6, human CFTR mutant S1251N (Homo sapiens, UniProt P13569, S1251N); details: FRT cells expressing S1251N CFTR
T6 construct: expressed in transfected cells; host or cells: Fisher rat thyroid (FRT) FlpIn cells, pcDNA5/FRT
Text: as §1, §2, §3, §4, §5

[7] = target: T7, human CFTR mutant G178R (Homo sapiens, UniProt P13569, G178R); details: FRT cells expressing G178R CFTR
T7 construct: expressed in transfected cells; host or cells: Fisher rat thyroid (FRT) FlpIn cells, pcDNA5/FRT
Text: as §1, §2, §3, §4, §5

[8] = target: T8, human CFTR mutant S1255P (Homo sapiens, UniProt P13569, S1255P); details: FRT cells expressing S1255P CFTR
T8 construct: expressed in transfected cells; host or cells: Fisher rat thyroid (FRT) FlpIn cells, pcDNA5/FRT
Text: as §1, §2, §3, §4, §5

[9] = target: T9, human CFTR mutant S549R (Homo sapiens, UniProt P13569, S549R); details: FRT cells expressing S549R CFTR
T9 construct: expressed in transfected cells; host or cells: Fisher rat thyroid (FRT) FlpIn cells, pcDNA5/FRT
Text: as §1, §2, §3, §4, §5

Measured: increase in chloride transport, relative to baseline chloride transport

T8 sequence (P13569 whole entry S1255P): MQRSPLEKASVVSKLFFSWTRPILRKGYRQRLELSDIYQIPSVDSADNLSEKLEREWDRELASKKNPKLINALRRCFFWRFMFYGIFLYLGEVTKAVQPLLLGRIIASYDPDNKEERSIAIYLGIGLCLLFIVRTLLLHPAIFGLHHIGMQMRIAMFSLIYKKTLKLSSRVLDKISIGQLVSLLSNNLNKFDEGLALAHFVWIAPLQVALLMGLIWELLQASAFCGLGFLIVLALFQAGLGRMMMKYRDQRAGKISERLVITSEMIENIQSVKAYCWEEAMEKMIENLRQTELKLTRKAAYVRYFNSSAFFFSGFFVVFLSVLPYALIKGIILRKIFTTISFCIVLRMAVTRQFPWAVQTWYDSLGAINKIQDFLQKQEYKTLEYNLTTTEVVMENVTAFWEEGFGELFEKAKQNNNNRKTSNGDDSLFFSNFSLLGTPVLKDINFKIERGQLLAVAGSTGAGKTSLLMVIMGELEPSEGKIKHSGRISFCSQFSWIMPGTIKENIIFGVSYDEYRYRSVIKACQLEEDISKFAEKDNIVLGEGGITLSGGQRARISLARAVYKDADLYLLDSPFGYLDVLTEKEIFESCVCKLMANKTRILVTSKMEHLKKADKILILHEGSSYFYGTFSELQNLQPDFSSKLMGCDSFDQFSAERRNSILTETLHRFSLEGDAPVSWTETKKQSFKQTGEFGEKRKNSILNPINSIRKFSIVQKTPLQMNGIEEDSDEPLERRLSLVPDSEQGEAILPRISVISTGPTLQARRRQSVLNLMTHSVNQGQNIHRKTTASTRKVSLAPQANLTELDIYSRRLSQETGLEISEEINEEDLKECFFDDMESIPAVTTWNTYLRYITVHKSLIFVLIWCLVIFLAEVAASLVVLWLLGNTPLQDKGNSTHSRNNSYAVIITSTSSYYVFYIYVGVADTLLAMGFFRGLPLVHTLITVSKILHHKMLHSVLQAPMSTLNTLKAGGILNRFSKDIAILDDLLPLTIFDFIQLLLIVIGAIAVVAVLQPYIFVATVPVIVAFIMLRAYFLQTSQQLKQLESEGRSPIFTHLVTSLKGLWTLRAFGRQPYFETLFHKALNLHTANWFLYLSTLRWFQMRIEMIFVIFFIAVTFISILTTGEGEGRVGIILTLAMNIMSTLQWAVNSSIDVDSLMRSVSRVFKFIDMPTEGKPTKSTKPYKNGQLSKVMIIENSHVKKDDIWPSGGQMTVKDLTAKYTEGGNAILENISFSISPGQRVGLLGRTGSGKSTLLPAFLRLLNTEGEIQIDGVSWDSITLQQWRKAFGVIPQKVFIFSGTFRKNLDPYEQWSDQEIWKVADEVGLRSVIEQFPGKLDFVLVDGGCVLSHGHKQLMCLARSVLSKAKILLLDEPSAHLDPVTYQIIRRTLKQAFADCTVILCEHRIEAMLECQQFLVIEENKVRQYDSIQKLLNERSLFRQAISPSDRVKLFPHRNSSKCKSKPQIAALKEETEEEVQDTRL
T3 sequence (P13569 whole entry G1349D): as the sequence (P13569 whole entry S1255P) above, with P1255S, G1349D counted along it
T9 sequence (P13569 whole entry S549R): as the sequence (P13569 whole entry S1255P) above, with S549R, P1255S counted along it
T5 sequence (P13569 whole entry G970R): as the sequence (P13569 whole entry S1255P) above, with G970R, P1255S counted along it
T1 sequence (P13569 whole entry G551S): as the sequence (P13569 whole entry S1255P) above, with G551S, P1255S counted along it
T2 sequence (P13569 whole entry S549N): as the sequence (P13569 whole entry S1255P) above, with S549N, P1255S counted along it
T7 sequence (P13569 whole entry G178R): as the sequence (P13569 whole entry S1255P) above, with G178R, P1255S counted along it
T6 sequence (P13569 whole entry S1251N): as the sequence (P13569 whole entry S1255P) above, with S1251N, P1255S counted along it
T4 sequence (P13569 whole entry G1244E): as the sequence (P13569 whole entry S1255P) above, with G1244E, P1255S counted along it

CC(C)(C)c1cc(C(C)(C)C)c(NC(=O)c2c[nH]c3ccccc3c2=O)cc1O [Compound 1, N-[2,4-bis(1,1-dimethylethyl)-5-hydroxyphenyl]-1,4-dihydro-4-oxoquinoline-3-carboxamide]
greater than 10 fold: all assays above
